This is an account of results in PMC10065799, “High-throughput profiling of sequence recognition by tyrosine kinases and SH2 domains using bacterial peptide display” (eLife, 2023).

The first assay relates to Fer kinase domain. Put plainly: pTyr-Var library bacterial peptide display kinase screen (enrichment scores). The following applies: sheet "Fer"; value of the variant peptide against its reference peptide in the pTyr-Var library screen with Fer. Format: biochemical, mouse.
PDSVDYPKKGF [CTSK_Y121_R122P_YF] yielded a Screen of 0.978.
Still for that read-out and setting: the same measure for GGMTEYELVVV [KRAS_Y4_K5E]: 4.104.
Take HESEIYGKVCF [CSRP3_Y57_C58G_YF]: the Screen is on record as 1.394.
The same measure, in the same setting: the figure for TTGGFYSFGGG [KRT24_Y120_A115T_YF] is -0.6603.
Same read-out and setting: the figure for VDSAHYQLLET [DTX3L_Y385_K386Q] is 3.227; for GHLFAYDWIRI [BEST1_Y227_S231R_YF] it is -0.2857.
On the same count and under the same terms, the same measure for FDGGCYEQLFV [MC4R_Y41_S36Y_YF]: 0.1035; for INQGPYENHSV [ATP6V1B1_Y462_R465H]: 4.636; for QRPFVYFFSFL [PTEN_Y176_R173P_YF]: -0.4962.
In the case of IGEVVYQWAVM [GRIN2A_Y502_R504W], the Screen was 2.434.
On to KRNSLYSFSDH [CCDC82_Y331_Q327R], for which the Screen is listed as -2.294.

The assay is the same for the next values; noted with them: sheet "Fer"; variant peptide relative to its reference peptide, pTyr-Var library screen enrichment.
As for LPVHFYSHVEH [PYGM_Y204_G205S], the Screen is recorded as -0.5676.
On the same count and under the same terms, the figure for CSEEMYCLMLQ [RET_Y981_R982C] is 3.517; for KEAQVYQAFRL [SUCLG2_Y343_K347R] it is 0.58; for KFDLMYAKRAF [TUBA3E_Y399_W402R] it is -3.735.

The target of a further assay is T1, c-Abl kinase domain (Mus musculus, UniProt P00520).
T1 sequence (P00520 242-493 limits assumed): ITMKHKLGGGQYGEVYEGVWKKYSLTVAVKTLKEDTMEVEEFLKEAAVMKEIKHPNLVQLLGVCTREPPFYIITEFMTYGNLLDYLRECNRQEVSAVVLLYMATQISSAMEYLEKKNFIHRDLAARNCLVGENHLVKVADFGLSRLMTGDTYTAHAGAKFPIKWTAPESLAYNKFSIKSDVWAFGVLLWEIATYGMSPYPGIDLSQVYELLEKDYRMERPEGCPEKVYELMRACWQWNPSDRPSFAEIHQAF
The description is as above. Type of assay: biochemical. The following applies: fig5-data2, sheet "Abl"; Screen for the variant/reference peptide pair, pTyr-Var library.
Regarding IKKLIYVFLVI [JAGN1_Y42_H44Y_YF], the Screen was 0.0101.
On the same count and under the same terms, the figure for VIKDKYPKAHF [APTX_Y209_R213H_YF] is 0.3442; for PDSVDYPKKGF [CTSK_Y121_R122P_YF] it is -1.054.
Still for that read-out and setting: the same measure for QHVPDYRQNGF [PCDHGA10_Y895_V899G_YF]: 0.583; for NNFGNYNNQSS [HNRNPA1_Y318_D314N]: 1.57; for SARVRYLMAEK [LDHB_Y173_F171V]: 1.358.
Take DPHECYAKVFN [ALB_Y394_D399N]: the Screen is listed as -0.4574.
The same measure, in the same setting: the figure for WDLTDYLMKIL [ACTB_Y188_R183W] is 1.288; for QQLQGYVPSNF [FRK_Y99_I100V_YF] it is 0.6322.
With TSQSQYSSFRE [CCDC170_Y323_F324S], the Screen stood at 2.786.
On the same count and under the same terms, the same measure for TGNPAYRSFSN [IL4R_Y497_A492T]: 1.02; for LMQAEYWHDPI [PPT1_Y185_V181M]: 0.6191.
Still for that read-out and setting: the same measure for AFQGKYTPSGQ [ALDOA_Y343_C339Y_YF]: -0.08587; for RLLRGYNQSAF [HLA-C_Y137_D138N_YF]: 1.149; for GKVADYIPQLP [GLS_Y249_A254P]: 0.08452.
Still for that read-out and setting: the same measure for EDAHHYLCKEV [JAK2_Y382_A377E]: -1.246; for ERIELYELDKK [PMM2_Y145_F144L]: 0.1245.
The sequence KICDWYQRQRP [KRT14_Y151_R148C] returned a Screen of 1.628.
Same read-out and setting: the figure for GITTGYLVLKE [DNMT3B_Y588_A585T] is 1.643; for EPAVLYNLKER [MYH7_Y103_D107E] it is -0.8606.
Same read-out and setting: the figure for IVLRSYPASDH [NID2_Y449_G453D] is 0.09357; for KNEVLYDEENH [ARFGEF1_Y314_G316E] it is -0.7157; for GVSFIYTIDGS [DCX_Y105_R102S_YF] it is -0.05601.
Same read-out and setting: the same measure for LEIETYRRLRD [KRT12_Y429_L433R]: 0.7498.
Sequence DFTSRYLSASD [PKHD1_Y828_N830S] returned a Screen of 0.6568.
Turning to HHFAAYFQQGD [GPI_Y351_R347H], the Screen is listed as 0.4221.
On to KAIMTYVFSFF [ACTN4_Y260_S262F_YF], for which the Screen is recorded as -1.213.
Turning to DCLASYLDKVR [KRT14_Y129_R125C], the Screen was found to be 1.479.
On the same count and under the same terms, the same measure for TLPAFYMENFS [GLB1_Y552_G554E]: 0.2401; for IWGKKYPTCNS [PTPRZ1_Y53_N48I]: 0.4141.

Still in this assay, the particulars now being: sheet "Abl"; effect of variant peptide relative to its reference peptide in pTyr-Var library screen (enrichment).
CDFKKYGKGLR [ZNF445_Y433_Y428C_YF] yielded a Screen of 1.206.
Still for that read-out and setting: the figure for EEETDYTPVWC [UROD_Y30_G25E] is 0.6447; for RLDGEYFTLQI [TP53_Y327_P322R] it is 0.2276; for LMFPDYLPCSV [SAG_Y129_T125M] it is 0.9994.
Still for that read-out and setting: the figure for VKPENYRRLDV [VHL_Y175_I180V] is -5.31; for TDTAAYEERLR [SPTB_Y474_V478L] it is -0.2404.
Still for that read-out and setting: the same measure for RGKDNYETSQL [SPP1_Y225_S224N]: 0.8642; for LSEEKYELKEG [TREM1_Y29_T25S]: -1.268.
In turn, FSALDYKIFFF [WDPCP_Y210_L205F_YF] came in with a Screen of -1.647.

The target in a further assay is c-Src kinase domain (Homo sapiens, UniProt P12931). The assay is described as above. Type of assay: biochemical. The following applies: sheet "Src"; effect of the variant peptide relative to its reference peptide in the pTyr-Var library screen.
As for PNRILYGDFWQ [MYH6_Y717_R721W], the Screen is recorded as -0.3786.
Same read-out and setting: the figure for PDSVDYPKKGF [CTSK_Y121_R122P_YF] is 2.065; for TTPAVYARVTK [CTRB2_Y246_A250T] it is 0.6652.
Still for that read-out and setting: the same measure for PQAVTYATVKH [LILRB4_Y360_K362T]: 2.009.
The same measure, in the same setting: the figure for LERFIYNPEEF [HLA-DPB1_Y59_R61P_YF] is 0.2405; for DLEKTYNTFRS [B4GALNT2_Y538_A533D_YF] it is -0.01989.
Take IIEDPYFGNDF [ACP1_Y132_S137F_YF]: the Screen was 0.7844.
Same read-out and setting: the figure for TSQSQYSSFRE [CCDC170_Y323_F324S] is -1.483; for EPFEVYRIVPE [IRF8_Y110_K108E_YF] it is 2.655.
Still for that read-out and setting: the figure for FQKNSYSEELR [LMNA_Y211_I210S] is -2.048; for LKLKAYRFSIS [LCT_Y974_V971L] it is 1.678; for HESEIYGKVCF [CSRP3_Y57_C58G_YF] it is -0.5157.
Still for that read-out and setting: the figure for TTGGFYSFGGG [KRT24_Y120_A115T_YF] is -0.1401.
Regarding IFSGIYFKPES [L2HGDH_Y102_H98Y_YF], the Screen was 0.7627.
The same measure, in the same setting: the figure for KCLAVYQAGAR [APOE_Y180_R176C] is 2.645; for GVSFIYTIDGS [DCX_Y105_R102S_YF] it is 0.9806; for LLTALYFISWG [KCNH2_Y780_R784W] it is 0.3693.
Still for that read-out and setting: the figure for FDGGCYEQLFV [MC4R_Y41_S36Y_YF] is 0.4972; for STLEVYRCHPP [IL21R_Y317_S318R] it is -1.75.
Still for that read-out and setting: the figure for IGEVVYQWAVM [GRIN2A_Y502_R504W] is -0.09777; for PLRAFYLIARV [HLCS_Y635_D634Y_YF] it is 1.953.
The sequence PLQHVYKIGGI [EEF1A2_Y254_D252H] had a Screen of -2.182.
The same measure, in the same setting: the same measure for KRNSLYSFSDH [CCDC82_Y331_Q327R]: -1.645.

Still in this assay, the particulars now being: sheet "Src"; variant peptide versus its reference peptide in the pTyr-Var library screen.
For the sequence NFFDLYGGEKF [PTPN11_Y66_D61N_YF], the Screen is recorded as -0.03521.
The same measure, in the same setting: the same measure for RRIHSYRCHLW [VHL_Y112_G114C]: -2.304; for FFFDLYGGEKF [PTPN11_Y66_D61Y_YF]: -1.282; for RLDGEYFTLQI [TP53_Y327_P322R]: -0.8354.
Still for that read-out and setting: the same measure for KVALLYKPFFF [POLE_Y100_P99L_YF]: 1.635; for RRIHRYRGHLW [VHL_Y112_S111R]: -2.928; for KFDLMYAKLAF [TUBA1A_Y399_R402L]: 2.907.
On the same count and under the same terms, the figure for NDENIYKGLPD [VAV3_Y141_D139N] is 1.088; for SILTVYSKDNF [PANK2_Y400_A398T_YF] it is -1.709.
In the case of CSEEMYCLMLQ [RET_Y981_R982C], the Screen is recorded as 1.894.
On the same count and under the same terms, the figure for SPPEVYAIMRG [NTRK1_Y757_C752S] is 0.1672; for LCHELYNTIRD [PBRM1_Y54_V49L] it is 1.3.
Same read-out and setting: the same measure for KSDVMYTDWKK [ORM1_Y175_V174M]: -1.392; for GRDVIYKGFED [NFU1_Y194_G190R]: -0.4839; for KEAQVYQAFRL [SUCLG2_Y343_K347R]: 0.6304.
Still for that read-out and setting: the figure for KFDLMYAKRAF [TUBA3E_Y399_W402R] is -2.285; for ERDTVYSSSGV [NELL2_Y350_N347D] it is 1.43; for PLDAEYFTLQI [TP53_Y327_G325A] it is 0.1358.
Consider HFVFFYSFLLK [PTEN_Y178_R173H_YF], for which the Screen amounted to 0.679.
Same read-out and setting: the same measure for SVTCTYSLALN [TP53_Y126_P128L]: 1.349; for MSGDVYSTDFF [NTRK2_Y702_R699G_YF]: 0.7528.
Same read-out and setting: the same measure for RRIHSYRGHVW [VHL_Y112_L116V]: -1.808; for LWQTIYNLEAE [TNNT2_Y251_S249T]: 0.4505.

For the next assay, the system named is EPHB1 kinase domain. The assay is described as above. Type of assay: biochemical, human. As to conditions: sheet "EPHB1"; variant seq vs reference seq; bacterial peptide display enrichment.
For RRIHSYRCHLW [VHL_Y112_G114C], the “Screen (variant relative to reference peptide, measured in the pTyr-Var library screen)” value is on record as -1.413.
The same measure, in the same setting: the same measure for RRIHRYRGHLW [VHL_Y112_S111R]: -1.747; for RRIHSYRGHVW [VHL_Y112_L116V]: -1.04.

The same assay, now with this note: sheet EPHB1; effect of the variant peptide relative to its reference peptide in the pTyr-Var library screen (enrichment scores).
In the case of RRNEEYCLLAS [ITK_Y198_D202A], the Screen was -0.2034.
Same read-out and setting: the same measure for RHPEVYHHLGI [NVL_Y290_V295I]: 0.1225.
Sequence HGQVNYEEFVQ [CALM2_Y139_D134H] gave a Screen of 1.863.
On the same count and under the same terms, the same measure for VRFVDYVLFRS [FAM189B_Y361_S358F]: 1.362; for IFSGIYFKPES [L2HGDH_Y102_H98Y_YF]: 0.7253; for DGQVNYEGFVQ [CALM1_Y139_E141G]: -0.1972.
Same read-out and setting: the same measure for DGQVNYEELVQ [CALM1_Y139_F142L]: -0.5322.
On the same count and under the same terms, the figure for PLQHVYKIGGI [EEF1A2_Y254_D252H] is -0.7167.
